Consider three molecules from patent publication US10335409B2 (priority 2012, dated 2019).

Molecules are shown by their SMILES.

What all share (format): cell-based, hepatitis C virus
Assay [1] relates to genotype 1a (H77) stable HCV replicon in Huh-7-derived cells. The assay can be described thus: Stable subgenomic HCV replicon EC50, genotype 1a (Renilla luciferase). To be noted: Hepatitis C virus, stable replicon genotype 1a, 72 h, read-out: EC50 1A RLUC. The essentials: (§1)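 Compounds, three-fold diluted, were applied to Huh-7-derived cells harbouring luciferase replicons (genotype 1a H77, 1b Con1, 2a JFH-1, 4a ED43, with strain-specific adaptive mutations). Seventy-two hours later, intracellular replication was gauged by Renilla luciferase activity and EC50 derived by regression.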
In general terms: A replicon is a self-replicating genome or part of one, used to study replication in cells.

Assay [2] concerns genotype 1b (Con1) stable HCV replicon in Huh-7-derived cells. Briefly: Stable subgenomic HCV replicon EC50, genotype 1b (Renilla luciferase). As to conditions: Hepatitis C virus, stable replicon genotype 1b, 72 h, read-out: EC50 1B RLUC. Put shortly:
as §1

The subject of assay [3] is genotype 2a (JFH-1) stable HCV replicon in Huh-7-derived cells. Briefly: Stable subgenomic HCV replicon EC50, genotype 2a (Renilla luciferase). To be noted: Hepatitis C virus, stable replicon genotype 2a, 72 h, read-out: EC50 2A RLUC. The essentials: as §1
Assay [4] relates to genotype 3a (S52) stable HCV replicon in Huh-7-derived cells. The assay can be described thus: Stable subgenomic HCV replicon EC50, genotype 3a (Renilla luciferase). To be noted: Hepatitis C virus, 72 h, read-out: EC50 3A RLUC.
Assay [5] relates to genotype 4a (ED43) stable HCV replicon in Huh-7-derived cells. Briefly: Stable subgenomic HCV replicon EC50, genotype 4a (Renilla luciferase). As to conditions: Hepatitis C virus, 72 h, read-out: EC50 4A RLUC. Put shortly: as §1
Assay [6] has as its system genotype 3a (S52) wild type transient HCV replicon in Huh-7-derived cells. Briefly: Transient-transfected HCV replicon EC50, genotype 3a wild type. As to conditions: Hepatitis C virus; transient-transfected replicon genotype 3a wild type, 72 h; read-out: EC50 3A WT.
Assay [7] has as its system genotype 1a (H77) wild type transient HCV replicon in Huh-7-derived cells. The assay can be described thus: Transient-transfected HCV replicon EC50, genotype 1a wild type. As to conditions: Hepatitis C virus, 72 h, transient-transfected replicon genotype 1a wild type, read-out: EC50 1A WT.
Assay [8] deals with genotype 1a NS3/4a protease inhibitor resistant variant R155K transient HCV replicon in Huh-7-derived cells. Briefly: Transient-transfected HCV replicon EC50, genotype 1a R155K. As to conditions: Hepatitis C virus, 72 h, read-out: EC50 1A R155K, transient-transfected replicon genotype 1a R155K resistant variant, 72 h.
Assay [9] relates to genotype 1b (Con1) wild type transient HCV replicon in Huh-7-derived cells. Briefly: Transient-transfected HCV replicon EC50, genotype 1b wild type. As to conditions: Hepatitis C virus, 72 h, transient-transfected replicon genotype 1b wild type, read-out: EC50 1B WT.
Assay [10] deals with genotype 1b NS3/4a protease inhibitor resistant variant D168A transient HCV replicon in Huh-7-derived cells. Briefly: Transient-transfected HCV replicon EC50, genotype 1b D168A. To be noted: Hepatitis C virus, 72 h, read-out: EC50 1B D168A, transient-transfected replicon genotype 1b D168A resistant variant, 72 h.

As for `CC[C@@H]1[C@@H]2CN(C(=O)[C@H](C(C)(C)C)NC(=O)O[C@@H]3C[C@H]3CCCCC(F)(F)c3nc4ccc(C#N)cc4nc3O2)[C@@H]1C(=O)N[C@]1(C(=O)NS(=O)(=O)C2(C)CC2)C[C@H]1C(F)F` [Example 87, (1aR,5S,8S,9S,10R,22aR)-5-tert-butyl-14-cyano-N-[(1R,2R)-2-(difluoromethyl)-1-{[(1-methylcyclopropyl)sulfonyl]carbamoyl}cyclopropyl]-9-ethyl-18,18-difluoro-3,6-dioxo-1,1a,3,4,5,6,9,10,18,19,20,21,22,22a-tetradecahydro-8H-7,10-methanocyclopropa[18,19][1,10,3,6]dioxadiazacyclononadecino[11,12-b]quinoxaline-8-carboxamide], the EC50 – broadly, the concentration needed to bring the measured effect to its halfway point – in assay [1] was 4.8 nM; in assay [2] it was 3.9 nM; in [3], 3.3 nM; in [4] it was 14 nM; in assay [5], 3.8 nM; in assay [6] it was 7.7 nM. Also, the EC50 in assay [7] worked out at 2.9 nM; in assay [8], 2.8 nM; in [9], 1.3 nM; in assay [10], 4 nM.
As for `CC[C@@H]1[C@@H]2CN(C(=O)[C@H](C(C)(C)C)NC(=O)O[C@@H]3C[C@H]3CCCCCc3nc4ccc(OC)cc4nc3O2)[C@@H]1C(=O)N[C@]1(C(=O)NS(=O)(=O)C2(C)CC2)C[C@H]1CC` [Example 4, (1aR,5S,8S,9S,10R,22aR)-5-tert-butyl-9-ethyl-N-[(1R,2R)-2-ethyl-1-{[(1-methylcyclopropyl)sulfonyl]carbamoyl}cyclopropyl]-14-methoxy-3,6-dioxo-1,1a,3,4,5,6,9,10,18,19,20,21,22,22a-tetradecahydro-8H-7,10-methanocyclopropa[18,19][1,10,3,6]dioxadiazacyclononadecino[11,12-b]quinoxaline-8-carboxamide], the EC50 in assay [1] is 10.7 nM; in assay [2] it was 9.6 nM; in assay [3], 16 nM; in assay [4], 271 nM; in assay [5] it was 7.9 nM; in assay [6] it was 68 nM. Moreover, the EC50 in assay [7] is 7.1 nM; in assay [8], 20 nM; in [9], 6.5 nM; in assay [10] it was 66 nM.
Take `CC[C@@H]1[C@@H]2CN(C(=O)[C@H](C(C)(C)C)NC(=O)O[C@@H]3C[C@H]3CCCCC(F)(F)c3nc4ccc(OC)cc4nc3O2)[C@@H]1C(=O)N[C@]1(C(=O)NS(=O)(=O)C2CC2)C[C@H]1CC` [Example 34, (1aR,5S,8S,9S,10R,22aR)-5-tert-butyl-N-{(1R,2R)-1-[(cyclopropylsulfonyl)carbamoyl]-2-ethylcyclopropyl}-9-ethyl-18,18-difluoro-14-methoxy-3,6-dioxo-1,1a,3,4,5,6,9,10,18,19,20,21,22,22a-tetradecahydro-8H-7,10-methanocyclopropa[18,19][1,10,3,6]dioxadiazacyclononadecino[11,12-b]quinoxaline-8-carboxamide]: the EC50 in assay [1] worked out at 12 nM; in assay [2] it was 13 nM; in assay [3], 18 nM; in assay [4], 322 nM; in [5], 9.7 nM; in [6] it was 46 nM. The EC50 was determined as 15 nM in assay [7], 18 nM in assay [8], 9 nM in assay [9] and 64 nM in assay [10].
